Source: US20180344768A1, “NK CELL-BASED THERAPY” (Onkimmune Limited, priority 2016, published 2018)

How the values were obtained:
[1] = test system: RPMI8226 cells; assay: Inhibition of KHYG-1 cell cytotoxicity by IL-6, flow cytometry; format: cell-based; conditions: RPMI8226, IL-6 100 ng/mL, E:T 1:1, 12 hr incubation
Experimental: (§1) KHYG-1, RPMI8226, MM1.S and K562 cells were cultured and maintained as described above. Cells were harvested in log phase, washed and re-suspended in pre-warmed appropriate mediums, before adjusting the cell concentration to 1 million/mL. The concentration of target cells was adjusted according to the E:T (effector: target) ratio. 0.5 mL KHYG-1 cells and 0.5 mL target cells were added to one well of a 24-well plate. IL-6 was added to the wells at final concentration of 100 ng/mL. The plates were then placed in a humidified 37° C./5% CO2 incubator for 12 hours (6 or 4 hours for K562 cells). The same mixture of KHYG-1 and target cells at time point 0 hr were used as a control.
(§2) Flow cytometry was used to measure the cytotoxicity of KHYG-1 cells. The co-cultured cells were collected (at different time points), washed and then stained with CD2-APC antibody (2.5 uL/test) first, then stained with AnnexinV-FITC (2.5 uL/test) and SYTOX-Green (0.5 uL/test) using AnnexinV binding buffer. Data were further analyzed using FlowJo 7.6.1 software. CD2-positive and CD2-negative gates were set which represent KHYG-1 cells and target cells, respectively. KHYG-1 cells were 100% positive for CD2, but K562, RPMI8226 and MM1.S cells were CD2-negative. Finally, the percentage of AnnexinV-FITC and SYTOX-Green positive cells (dead cells) in CD2-negative population was analyzed.

[2] = test system: MM1.S cells; assay: as above; format: cell-based; conditions: IL-6 100 ng/mL, E:T 1:1, 12 hr incubation
Experimental: as §1, §2

[3] = test system: K562 cells; assay: as above; format: cell-based; conditions: K562, IL-6 100 ng/mL
Experimental: as §1, §2

[4] = test system: NKG2A (inhibitory receptor); assay: Receptor expression on KHYG-1 cells after IL-6 stimulation; format: cell-based, human; conditions: 50 ng/mL IL-6 in the presence of IL-2, 24 hours
Description: (§3) Negative control means FMO. APC anti-human NKG2D Antibody (catalog number #320807) was bought from Biolegend. APC anti-human NKG2A Antibody (catalog number FAB1059A) was bought from R&D systems.

[5] = test system: NKG2D (activating receptor); assay: as above; format: cell-based, human; conditions: 50 ng/mL IL-6 in the presence of IL-2, 24 hours
Description: as §3

[6] = test system: PD-L1; assay: Checkpoint ligand expression on MM cells treated with IL-6; format: cell-based, human; conditions: 100 ng/mL IL-6, 48 hours
Experimental: (§4) MM cells in log phase were seeded at 0.5 million/mL in RPMI1640 medium containing 10% FBS. A final concentration of 100 ng/mL IL-6 or same volume of vehicle (PBS) was used to treat MM cells for 48 hours. Then MM cells were harvested, washed, and stained with PD-L1 and PD-L2 antibodies (2.5 uL/test). Flow cytometric data were acquired using a FACS Canto II, and the results were further analyzed by […] 8.0.1 software.

[7] = test system: PD-L2; assay: as above; format: cell-based, human; conditions: 100 ng/mL IL-6, 48 hours
Experimental: as §4

[8] = test system: p-STAT3, p-SHP1, p-SHP2, p-P44/42; assay: IL-6 / IL-2 signaling in KHYG-1 cells, gel electrophoresis; format: cell-based, human
Description: PE labeled mouse anti-human CD126 (IL-6 receptor alpha chain) (Catalog: 551850), PE labeled mouse anti-human CD130 (gp130, IL-6 receptor-associated signal transducer) (Catalog #:555757), PE-labeled Mouse IgG1 k isotype control (Catalog: 555749), APC-labeled mouse anti-human CD2 (Catalog: 560642), FITC-labeled mouse anti-human CD2 (Catalog: 555326), APC-labeled mouse anti-human PD-L1 (Catalog: 563741) and APC-labeled mouse anti-human PD-L2 (Catalog: 557926) were bought from BD Pharmingen. APC-labeled mouse anti-human PD1 antibody (Catalog: 329907) was bought from Biolegend. Phosphor-Stat3(Ser727) mouse mAb (Catalog:9136), Phosphor-Shp-1(Tyr564) rabbit mAb (Catalog; 8849), Phosphor-Shp-2(Tyr580) rabbit mAb (Catalog: 5431), Phospho-p44/42 MAPK (Erk1/2) (Thr202/Tyr204) rabbit mAb (Catalog: 4370) and p44/42 MAPK (Erk1/2) rabbit mAb were bought from Cell Signaling Technology. Phosphor-Stat3(Tyr705) mouse mAb (Catalog: sc-81523) and rabbit anti-human Stat3 polyclonal antibody (Catalog: sc-7179) were bought from Santa Cruz Biotechnology. Mouse anti-beta actin (Catalog: A5441) was bought from SIGMA-ALDRICH. Functional IL-6 blocking antibody (Catalog: 501110) and the related isotype control antibody (Catalog: 400414) were bought from Biolegend.
KHYG-1 cells were cultivated and maintained as mentioned above.

[9] = KHYG-1 cells starved of IL-2 for 6 hours, cytokine alone (IL-2 10 ng/mL or IL-6 100 ng/mL)
[10] = KHYG-1 cells, IL-6 in the presence of IL-2

Q: With “IL-6: Recombinant Human IL-6 (Catalog: 200-06) from PEPROTECH” as the substance, how does the “percentage of dead target cells co-cultured with KHYG-1 cells” value (“percentage” for short) [1] read?
A: Its value is “decreased”.

Q: What about the “percentage” value [2] of the same substance?
A: Its value is “decreased”.

Q: And the “percentage” value ([3]; E:T 1:1, 4 hr incubation)?
A: The value was “decreased”.

Q: And the “percentage” value ([3]; E:T 1:1, 6 hr incubation)?
A: The value was “decreased”.

Q: And the NKG2A expression [4]?
A: Its NKG2A expression is “increasing expression”.

Q: What about the NKG2D expression levels [5] of the same substance?
A: The NKG2D expression levels was “decreasing expression levels”.

Q: What about the PD-L1 expression ([6]; MM1.S cells) of the same substance?
A: The PD-L1 expression was “upregulation”.

Q: What about the PD-L1 expression ([6]; NCI-H929 cells) of the same substance?
A: The PD-L1 expression was “upregulation”.

Q: What about the PD-L1 expression ([6]; RPMI8226 cells) of the same substance?
A: Its PD-L1 expression is “upregulation”.

Q: What about the PD-L1 expression ([6]; U266 cells) of the same substance?
A: The PD-L1 expression was “upregulation”.

Q: What about the PD-L2 expression ([7]; MM1.S cells) of the same substance?
A: Its PD-L2 expression is “upregulation”.

Q: What about the PD-L2 expression ([7]; NCI-H929 cells) of the same substance?
A: Its PD-L2 expression is “upregulation”.

Q: What about the PD-L2 expression ([7]; RPMI8226 cells) of the same substance?
A: The PD-L2 expression was “upregulation”.

Q: And the PD-L2 expression ([7]; U266 cells)?
A: The PD-L2 expression was “upregulation”.

Q: What about the p-P44/42 [8, 9] of the same substance?
A: The p-P44/42 was “decreased expression”.

Q: What about the p-SHP1 [8, 9] of the same substance?
A: Its p-SHP1 is “activated”.

Q: What about the p-SHP2 [8, 9] of the same substance?
A: The p-SHP2 was “activated”.

Q: What about the p-STAT3 [8, 9] of the same substance?
A: Its p-STAT3 is “activated”.

Q: What about the p-P44/42 expression [8, 10] of the same substance?
A: Its p-P44/42 expression is “decreasing”.

Q: And the p-SHP1 expression [8, 10]?
A: Its p-SHP1 expression is “increasing”.

Q: And the p-SHP2 expression [8, 10]?
A: Its p-SHP2 expression is “increasing”.
